# Non-standard residues stand in square brackets, D forms with d. Residues, ends and D or L forms follow the SMILES beside them. *: point of attachment. Octanoyl = CCCCCCCC(=O)*; Api = NC1(C(=O)O)CCNCC1; Aib = CC(C)(N)C(=O)O
# How the values were obtained:
# [1] = system: Escherichia coli CCUGT; details: 18 h; for MIC Eco: MHB, 5 × 10^5 CFU/mL, 35 °C, triplicate; for MBC Eco: CCUGT
# From the text: (§1) The antibacterial activity of the peptides was initially assessed on a panel of representative Gram-positive and Gram-negative organisms of high clinical relevance and commonly responsible for bacterial infections in both animals and humans. Bacillus subtilis ATCC 6633 (Bsu) was also included as a rod-shaped model Gram-positive organism. This first panel comprised: Enterococcus faecalis ATCC 29212 (Efa); Streptococcus pyogenes ATCC 12344 (Spy); and Staphylococcus aureus ATCC 25923 (Sau); Gram-negative: Escherichia coli CCUGT (Eco), Klebsiella pneumoniae ATCC 13833 (Kpn), Acinetobacter baumannii ATCC 17978 (Aba), and Pseudomonas aeruginosa ATCC 27853 (Pae) (Table 2). Both the minimum inhibitory concentration (MIC, Table 2) and the minimum bactericidal concentration (MBC, Table S1, Supporting Material) were determined.
# (§2) The minimum inhibitory concentration (MIC) and the minimum bactericidal concentration (MBC) of the compounds were determined in triplicate using Mueller–Hinton broth (MHB). […] Therefore, we decided to dissolve all peptides in DMSO to a final concentration of 25 mg/mL, for consistency. The bacteria inoculum was 5 × 10^5 CFU/mL, as recommended by CLSI (Document M07-A10, 2015). […] Reference-type strains, including representatives of both Gram-positive bacteria (Bacillus subtilis ATCC 6633, Enterococcus faecalis ATCC 29212, Staphylococcus aureus ATCC 25923, the methicillin-resistant Staphylococcus aureus ATCC 43300 (MRSA), Streptococcus pyogenes ATCC 12344) and Gram-negative bacteria (Escherichia coli CCUGT, Klebsiella pneumoniae ATCC 13833, Pseudomonas aeruginosa ATCC 27853, and Acinetobacter baumannii ATCC 17978), were acquired from ATCC or CCUG culture collections. Other antibiotic-resistant clinical isolates were present in our collection at the University Teaching Hospital (Azienda Ospedaliero-Universitaria Senese ‘Santa Maria alle Scotte’) in Siena, Tuscany, Italy. Specifically, MDR carbapenem-hydrolyzing class D β-lactamase-producing Acinetobacter baumannii and metallo-β-lactamase-producing Pseudomonas aeruginosa were used in this study (Table 4).
# [2] = system: Acinetobacter baumannii ATCC 17978; details: for MIC Aba: MHB, 5 × 10^5 CFU/mL, 18 h, 35 °C, triplicate; for MBC Aba: ATCC 17978, 18 h
# From the text: as §1, §2
# [3] = system: Klebsiella pneumoniae ATCC 13833; details: for MIC Kpn: MHB, 5 × 10^5 CFU/mL, 18 h, 35 °C, triplicate; for MBC Kpn: ATCC 13833, 18 h
# From the text: as §1, §2
# [4] = system: Enterococcus faecalis ATCC 29212; details: for MIC Efa: MHB, 5 × 10^5 CFU/mL, 18 h, 35 °C, triplicate; for MBC Efa: ATCC 29212, 18 h
# From the text: as §1, §2
# [5] = system: Streptococcus pyogenes ATCC 12344; details: for MIC Spy: MHB, 5 × 10^5 CFU/mL, 18 h, 35 °C, triplicate; for MBC Spy: ATCC 12344, 18 h
# From the text: as §1, §2
# [6] = system: Pseudomonas aeruginosa ATCC 27853; details: for MIC Pae: MHB, 5 × 10^5 CFU/mL, 18 h, 35 °C, triplicate; for MBC Pae: ATCC 27853, 18 h
# From the text: as §1, §2
# [7] = system: Bacillus subtilis ATCC 6633; details: for MBC Bsu: ATCC 6633, 18 h; for MIC Bsu: MHB, 5 × 10^5 CFU/mL, 18 h, 35 °C, triplicate
# From the text: as §1, §2
# [8] = system: Staphylococcus aureus ATCC 25923; details: for MIC Sau: MHB, 5 × 10^5 CFU/mL, 18 h, 35 °C, triplicate; for MBC Sau: ATCC 25923, 18 h
# From the text: as §1, §2
# [9] = system: blood agar plate (Columbia CNA Agar); assay: Hemolysis on blood agar plate; details: 35 ± 2 °C, 24 h; for Hemolysis (d, diameter of hemolysis zone): average of triplicate
# Experimental: Hemolysis zones were visually determined and measured. […] For two additional peptides (6 and 15), only a small hemolysis zone (diameter 4–5 mm) was visible, as compared to that of the positive control (Triton X-100, 13 mm).
# Briefly, 2 μL of each peptide solution in DMSO (25 mg/mL), corresponding to 50 μg, was spotted on the surface of a blood agar plate (Columbia CNA Agar, Becton Dickinson Italia S.p.A., Florence, Italy). The plate was then incubated at 35 ± 2 °C for 24 h and visually inspected for the presence of hemolysis zones (see Figure S13, Supplementary Material). The experiment was performed in triplicate. Table 2 reports the average value of the diameter of hemolysis zones measured in each individual experiment. Triton X-100 was used as a positive control (diameter of the hemolysis zone: 13 mm), while DMSO was used as a negative control.
# Figure S13. Implementation of the hemolysis test as described in Bechlars et al.. After spotting
# 2 µL (50 µg) of each compound at a random location on the blood agar plate and incubation at 35 ±
# 2 °C for 24 h, the plates were manually inspected for the presence of hemolysis zones. Triton X-100
# and DMSO were used as the positive and negative controls, respectively. Results were interpreted
# (1 picture or pasted object on this page, not shown here)
Compound,MIC Eco [1],MIC Aba [2],MIC Kpn [3],MIC Efa [4],MIC Spy [5],MIC Pae [6],MBC Bsu [7],MIC Bsu [7],MIC Sau [8],"Hemolysis (d, diameter of hemolysis zone) ([9]; 50 μg spotted on blood agar)",MBC Eco [1],MBC Aba [2],MBC Kpn [3],MBC Efa [4],MBC Spy [5],MBC Pae [6],MBC Sau [8],"Hemolysis (class) ([9]; 50 μg peptide (2 μL of 25 mg/mL in DMSO) spotted on blood agar, visual, triplicate)",Hemolytic activity (in words) ([9]; 50 μg spotted on blood agar)
"CCCCCCCC(=O)N[C@@H](CC(C)C)C(=O)N[C@@H](CCCCN)C(=O)NC(C)(C)C(=O)N[C@@H](CC(C)C)C(N)=O [Peptide 18, 1-Oct-Leu-Lys-Aib-Leu-NH2] (Octanoyl-LK[Aib]L-NH2)",> 128 µg/mL,> 128 µg/mL,> 128 µg/mL,> 128 µg/mL,128 µg/mL,> 128 µg/mL,> 128 µg/mL,128 µg/mL,> 128 µg/mL,,,,,,,,,,
"CCCCCCCC(=O)N[C@@H](CC(C)C)C(=O)NC(C)(C)C(=O)N[C@@H](CCCCN)C(=O)N[C@@H](CC(C)C)C(N)=O [Peptide 16, 1-Oct-Leu-Aib-Lys-Leu-NH2] (Octanoyl-L[Aib]KL-NH2)",> 128 µg/mL,> 128 µg/mL,> 128 µg/mL,> 128 µg/mL,> 128 µg/mL,> 128 µg/mL,,> 128 µg/mL,> 128 µg/mL,,,,,,,,,,
Triton X-100 [reference compound],,,,,,,,,,13 mm,,,,,,,,,
"CCCCCCCC(=O)NC(C)(C)C(=O)N[C@@H](CCCCN)C(=O)N[C@@H](CCCCN)C(=O)N[C@@H](CC(C)C)C(=O)NC(C)(C)C(=O)NCC(=O)N[C@H](C(=O)N[C@@H](CC(C)C)C(N)=O)[C@@H](C)CC [Peptide 12, 1-Oct-Aib-Lys-Lys-Leu-Aib-Gly-Ile-Leu-NH2] (Octanoyl-[Aib]KKL[Aib]GIL-NH2)",16 µg/mL,32 µg/mL,64 µg/mL,32 µg/mL,16 µg/mL,64 µg/mL,16 µg/mL,4 µg/mL,16 µg/mL,,64 µg/mL,32 µg/mL,> 128 µg/mL,32 µg/mL,16 µg/mL,> 128 µg/mL,16 µg/mL,,
"CCCCCCCC(=O)NC(C)(C)C(=O)N[C@@H](CCCCN)C(=O)N[C@@H](CCCCN)C(=O)N[C@@H](CC(C)C)C(=O)N[C@@H](CC(C)C)C(N)=O [Peptide 13, 1-Oct-Aib-Lys-Lys-Leu-Leu-NH2] (Octanoyl-[Aib]KKLL-NH2)",> 128 µg/mL,> 128 µg/mL,> 128 µg/mL,> 128 µg/mL,> 128 µg/mL,> 128 µg/mL,64 µg/mL,32 µg/mL,> 128 µg/mL,,,,,,,,,,
"CCCCCCCC(=O)NC(C)(C)C(=O)N[C@@H](CCCCN)C(=O)N[C@@H](CC(C)C)C(=O)N[C@@H](CC(C)C)C(N)=O [Peptide 15, 1-Oct-Aib-Lys-Leu-Leu-NH2] (Octanoyl-[Aib]KLL-NH2)",64 µg/mL,64 µg/mL,64 µg/mL,32 µg/mL,16 µg/mL,64 µg/mL,32 µg/mL,16 µg/mL,64 µg/mL,5 mm,> 128 µg/mL,128 µg/mL,> 128 µg/mL,32 µg/mL,16 µg/mL,> 128 µg/mL,> 128 µg/mL,,
"CCCCCCCC(=O)N[C@@H](CCCCN)C(=O)N[C@@H](CC(C)C)C(=O)NC(C)(C)C(=O)N[C@@H](CC(C)C)C(N)=O [Peptide 17, 1-Oct-Lys-Leu-Aib-Leu-NH2] (Octanoyl-KL[Aib]L-NH2)",> 128 µg/mL,> 128 µg/mL,> 128 µg/mL,> 128 µg/mL,> 128 µg/mL,> 128 µg/mL,,> 128 µg/mL,> 128 µg/mL,,,,,,,,,,
"CCCCCCCC(=O)NC(C)(C)C(=O)NCC(=O)N[C@@H](CC(C)C)C(=O)NC(C)(C)C(=O)NCC(=O)NCC(=O)N[C@@H](CC(C)C)C(=O)NC1(C(=O)NCC(=O)N[C@H](C(=O)N[C@@H](CC(C)C)C(N)=O)[C@@H](C)CC)CCNCC1 [Peptide 8, 1-Oct-Aib-Gly-Leu-Aib-Gly-Gly-Leu-Api-Gly-Ile-Leu-NH2] (Octanoyl-[Aib]GL[Aib]GGL[Api]GIL-NH2)",> 128 µg/mL,> 128 µg/mL,> 128 µg/mL,16 µg/mL,16 µg/mL,> 128 µg/mL,,32 µg/mL,> 128 µg/mL,7 mm,,,,,,,,+,hemolytic activity
"CCCCCCCC(=O)N[C@@H](CC(C)C)C(=O)NC(C)(C)C(=O)N[C@@H](CCCCN)C(=O)N[C@H](C(N)=O)[C@@H](C)CC [Peptide 14, 1-Oct-Leu-Aib-Lys-Ile-NH2] (Octanoyl-L[Aib]KI-NH2)",> 128 µg/mL,> 128 µg/mL,> 128 µg/mL,> 128 µg/mL,> 128 µg/mL,> 128 µg/mL,,> 128 µg/mL,> 128 µg/mL,,,,,,,,,,

# Reference: PMC10178204, “Peptaibol Analogs Show Potent Antibacterial Activity against Multidrug Resistant Opportunistic Pathogens” (International Journal of Molecular Sciences, 2023)
